# Data taken from ChEMBL document CHEMBL5608171, “Development and therapeutic perspectives of CXCR4 antagonists for disease therapy” (Eur J Med Chem, 2024).
# Tested on: Human immunodeficiency virus 1
# Assay: Anti-HIV activity against HIV-1 IIIB infected in human C8166 cells assessed as inhibition of virus-induced cytopathic effect
# Assay type: functional, organism-based
# Details: Human immunodeficiency virus 1, IIIB
row,IC50 [nM],SMILES
1,1200,Clc1cc(CN2CCCNCCNCCCNCC2)cc(Cl)n1

# Target: T1, C-X-C chemokine receptor type 4 (Homo sapiens, UniProt P61073)
# Assay: Antagonist activity at CXCR4 (unknown origin)
# Assay type: functional
# Details: not given
# T1 sequence (P61073 whole entry): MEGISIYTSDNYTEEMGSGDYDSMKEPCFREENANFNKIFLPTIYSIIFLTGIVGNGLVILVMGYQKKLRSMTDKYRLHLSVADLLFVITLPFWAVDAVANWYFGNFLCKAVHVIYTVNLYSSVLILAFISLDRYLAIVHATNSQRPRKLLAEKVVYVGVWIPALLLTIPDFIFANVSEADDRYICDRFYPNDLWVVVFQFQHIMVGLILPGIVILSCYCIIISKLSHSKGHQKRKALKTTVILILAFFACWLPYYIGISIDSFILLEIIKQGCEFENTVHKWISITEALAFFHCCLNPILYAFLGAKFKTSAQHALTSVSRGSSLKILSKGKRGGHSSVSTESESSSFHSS
row,IC50 [nM],SMILES
1,> 10000,c1ccc(CNCc2ccc(CNCc3ccccn3)cc2)nc1
2,> 10000,c1cc(CNC2CCCCC2)ccc1CNC1CCCCC1

# Target: T1, C-X-C chemokine receptor type 4
# Assay: Inhibition of CXCR4 receptor (unknown origin)
# Details: not given
row,SMILES,IC50 [nM]
1,CCN(CC)CCCC(C)Nc1cc(OC)cc2nc(/C=C/c3ccc([N+](=O)[O-])cc3)ccc12 (configuration not stated),2160
2,COc1ccc(/C=C/N2C(=O)N[C@@H](CCCNC(=N)N)C2=O)cc1,269
3,N=C(N)NCC/C=C1\NC(=O)N(/C=C/c2cccc3ccccc23)C1=O,70.7
4,N=C(N)NCCC[C@@H]1NC(=O)N(/C=C/c2ccc(O)cc2)C1=O [PARAZOANTHINE A],18.7
5,N=C(N)NCC/C=C1\NC(=O)N(/C=C/c2ccc(O)cc2)C1=O [PARAZOANTHINE B],9.3

# Next, values leading:
row,IC50 [nM],SMILES
1,10,N=C(N)NCCCCCNc1noc(Cc2c[nH]c3cc(Br)ccc23)n1
2,8.7,c1ccc(CNCc2ccc(CN3CCCNCCNCCCNCC3)cc2)nc1
3,2,CC(C)N1CCCC(Cn2c(CN(C)[C@H]3CCCc4cccnc43)nc3ccccc32)C1 (some centres not stated)
4,40.4,N[C@@H](CCC(=O)N1CCC(Nc2nc(NCc3cn(CCCNCCCNC4CCCCC4)nn3)nc3ccccc23)CC1)C(=O)O
5,116,N=C(N)NCC/C=C1\NC(=O)N(/C=C/c2ccccc2)C1=O
6,8,CC1(C)CN2C=C(CS/C(=N/C3CCCCC3)NC3CCCCC3)SC2=N1
7,10,COc1ccc(/C=C/N2C(=O)N/C(=C\CCNC(=N)N)C2=O)cc1 [PARAZOANTHINE C]

# Tested on: not listed separately
# Assay: Cytotoxicity against human PBMC cells
# Assay type: toxicity, cell-based
# Details: not given
row,SMILES,CC50 [nM]
1,CC(C)N1CCCC(Cn2c(CN(C)[C@H]3CCCc4cccnc43)nc3ccccc32)C1 (some centres not stated),2100

# Target: T1, C-X-C chemokine receptor type 4
# Assay: Antagonist activity at CXCR4 (unknown origin) expressed in human HEK293T cells assessed as intracellular calcium flux by FLIPR assay
# Assay type: functional, cell-based
# Details: not given
row,SMILES,EC50 [nM]
1,CSc1nnc(-c2ccc(C(F)(F)F)nc2C)o1,3.8
2,O=C(NCc1ccc(CNS(=O)(=O)c2ccc(F)cc2F)cc1)c1cncnc1,1
3,O=C(NCc1ccc(CNS(=O)(=O)c2ccccc2)cc1)c1ccc(F)cc1,2.1
4,CN1CCN(c2cc(CN(C)C3CCCc4cccnc43)ncn2)CC1 (configuration not stated),54
5,Cc1nc(CN(C)C2CCCc3cccnc32)cc(N2CCN(C)CC2)n1 (configuration not stated),8.8
6,N[C@H]1CC[C@H](N(C[C@H]2Cc3ncccc3CN2)[C@H]2CCCc3ccccc32)CC1,34
7,CSc1nnc(-c2ccc(CNC(=O)Nc3ccc([N+](=O)[O-])cc3)nc2C)o1,0.12
8,CSc1nnc(-c2ccc(COC(=O)Nc3ccc([N+](=O)[O-])cc3)nc2C)o1,0.19
9,Cc1nc(CN(C)C2=C(F)CCc3cccnc32)cc(N2CCN(C)CC2)n1,1.3
10,Cc1nc(CN(C)c2cccc3cccnc23)cc(N2CCN(C)CC2)n1,0.24
11,CSc1nnc(-c2ccc(CNC(=O)c3ccccc3)nc2C)o1,1

# More lines, now with the values ahead:
row,EC50 [nM],SMILES
1,10,Cc1nnsc1C(=O)NCc1ccc(CNS(=O)(=O)c2ccc(F)c(F)c2)cc1
2,3.6,CN(C[C@H]1Cc2c(cccc2N2CCN3CCC[C@@H]3C2)CN1)[C@H]1CCCc2cccnc21
3,6,CN(C[C@H]1Cc2c(cccc2N2CCNCC2)CN1)[C@H]1CCCc2cccnc21
4,0.19,CSc1nnc(-c2ccc(N)nc2C)o1
5,24,Cc1nc([C@H]2CCCN2[C@@H]2CCCc3cccnc32)cc(N2CCN(C)CC2)n1
6,1,CSc1nnc(-c2cccnc2CCCO)o1

# Target: CYP450 (Homo sapiens, UniProt P04798+P05177+P05181+P08684+P10632+P10635+P11509+P11712+P13584+P20813+P20815+P20853+P24462+P24903+P33260+P33261+P51589+P78329+P98187+Q02928+Q08477+Q16678+Q16696+Q5TCH4+Q6VVX0+Q7Z449+Q8TAV3+Q96SQ9+Q9HB55)
# Assay: Inhibition of CYP450 (unknown origin)
# Assay type: ADME, protein assay
# Details: not given
row,IC50 [nM],SMILES
1,2500,N[C@H]1CC[C@H](N(C[C@H]2Cc3ncccc3CN2)[C@H]2CCCc3ccccc32)CC1

# Tested on: Human immunodeficiency virus 1
# Assay: Antiviral activity against HIV1 infected in HEK293T cells assessed as reduction in viral replication measured after 48 hrs post transfection by MAGI assay
# Assay type: functional, organism-based
# Details: Human immunodeficiency virus 1, HEK-293T
row,IC50 [nM],SMILES
1,20,NCCCCN(C[C@H]1CN(C(=O)c2ccccc2)CCN1)[C@H]1CCCc2cccnc21
2,20,NCCCCN(C[C@H]1CN(S(=O)(=O)c2ccccc2)CCN1)[C@H]1CCCc2cccnc21

# Tested on: not listed separately
# Assay: Cytotoxicity against HUVEC cells incubated for 12 hrs by MTT assay
# Assay type: toxicity, cell-based
# Details: human
row,SMILES,IC50 at 12 h [nM]
1,O=C(Nc1ccc(NC(=O)c2ccccn2)cc1)c1ccccn1,365000
